Values after ≈ are worked out from the molar mass of the structure shown.
Test system: G(−) bacterial strains
Assay: Dilution antimicrobial susceptibility tests (MIC, NCCLS agar dilution / broth dilution)
Format: cell-based, Gram-negative organisms
Details: unit assumed
In short: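 Agar dilution on Mueller-Hinton agar at 10^4 CFU/spot and broth dilution at 5×10^5 CFU/well, per NCCLS M7-A5. Streptococci tested on Mueller-Hinton agar with 5% sheep blood. MIC taken as minimum inhibitory concentration; ATCC control strains run alongside.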

[1] = strain #1 Acinetobacter calcoaceticus
[2] = strain #2 Acinetobacter baumannii, Cf-R, Ci-R
[3] = strain #3 Acinetobacter baumannii, Cf-R, Ci-R, Mp-I
[4] = strain #4 Acinetobacter baumannii, Cf-R, Imp-I, CBPase
[5] = strain #7 Enterobacter aerogenes
[6] = strain #8 Enterobacter cloacae, Cf-R, B+
[7] = strain #9 Enterobacter cloacae, Cf-R
[8] = strain #10 Escherichia coli, Ci-R
[9] = strain #11 Escherichia coli, Ci-R, AmpC
[10] = strain #15 Klebsiella pneumoniae
[11] = strain #16 Moraxella catarrhalis
[12] = strain #21 Providencia rettgeri
[13] = strain #22 Salmonella typhimurium
[14] = strain #25 Shigella dysenteriae
[15] = strain #28 Stenotrophomonas maltophilia
[16] = strain #29 Pseudomonas aeruginosa
[17] = strain #30 Pseudomonas aeruginosa
[18] = strain #31 Pseudomonas aeruginosa, Ofx-R
[19] = strain #32 Pseudomonas aeruginosa, Cf-R
[20] = strain #33 Pseudomonas aeruginosa, Ci-R
[21] = strain #34 Pseudomonas aeruginosa, Gen-R
[22] = strain #35 Pseudomonas aeruginosa, Ip-R
[23] = strain #36 Pseudomonas aeruginosa, Cf-R, Ci-R, Mp-R

| SMILES | MIC [1] [µg/mL] | MIC [2] [µg/mL] | MIC [3] [µg/mL] | MIC [4] [µg/mL] | MIC (strain #5 Citrobacter diversus) [µg/mL] | MIC (strain #6 Citrobacter freundii) [µg/mL] | MIC [5] [µg/mL] | MIC [6] [µg/mL] | MIC [7] [µg/mL] | MIC [8] [µg/mL] | MIC [9] [µg/mL] | MIC (strain #12 Escherichia coli) [µg/mL] | MIC (strain #13 Escherichia coli) [µg/mL] | MIC (strain #14 Klebsiella oxytoca) [µg/mL] | MIC [10] [µg/mL] | MIC [11] [µg/mL] | MIC (strain #17 Morganella Morganii) [µg/mL] | MIC (strain #18 Morganella Morganii) [µg/mL] | MIC (strain #19 Proteus vulgaris) [µg/mL] | MIC (strain #20 Proteus mirabilis) [µg/mL] | other results |
| --- | --- | --- | --- | --- | --- | --- | --- | --- | --- | --- | --- | --- | --- | --- | --- | --- | --- | --- | --- | --- | --- |
| CNC(=O)[C@H]1CCN(CC2=C(C(=O)O)N3C(=O)C([C@@H](C)O)C3[C@H]2C)C1 (stereo partly shown) [Compound 127] | 1 (≈ 2.85 µM) | 1 (≈ 2.85 µM) | 4 (≈ 11.4 µM) | 2 (≈ 5.69 µM) | 0.5 (≈ 1.42 µM) | 0.5 (≈ 1.42 µM) | 2 (≈ 5.69 µM) | 0.5 (≈ 1.42 µM) | 1 (≈ 2.85 µM) | 0.5 (≈ 1.42 µM) | 0.5 (≈ 1.42 µM) | 0.5 (≈ 1.42 µM) | 0.5 (≈ 1.42 µM) | 1 (≈ 2.85 µM) | 1 (≈ 2.85 µM) | ≤ 0.008 | 4 (≈ 11.4 µM) | 4 (≈ 11.4 µM) | 2 (≈ 5.69 µM) | 0.5 (≈ 1.42 µM) | MIC [12]: 2 µg/mL (≈ 5.69 µM); MIC [13]: 0.5 µg/mL (≈ 1.42 µM); MIC (strain #23 Serratia marcescens): 1 µg/mL (≈ 2.85 µM); MIC (strain #24 Serratia marcescens): 2 µg/mL (≈ 5.69 µM); MIC [14]: 1 µg/mL (≈ 2.85 µM); MIC (strain #26 Shigella sonnei): 0.5 µg/mL (≈ 1.42 µM); MIC (strain #27 Shigella flexneri): 0.5 µg/mL (≈ 1.42 µM); MIC [15]: 0.5 µg/mL (≈ 1.42 µM); MIC [16]: 8 µg/mL (≈ 22.8 µM); MIC [17]: 8 µg/mL (≈ 22.8 µM); MIC [18]: 2 µg/mL (≈ 5.69 µM); MIC [19]: 8 µg/mL (≈ 22.8 µM); MIC [20]: 8 µg/mL (≈ 22.8 µM); MIC [21]: 8 µg/mL (≈ 22.8 µM); MIC [22]: 16 µg/mL (≈ 45.5 µM); MIC [23]: > 32 µg/mL |
| C[C@@H](O)C1C(=O)N2C(C(=O)O)=C(CN3CC[C@H](C(=O)NC(=N)N)C3)[C@H](C)C12 (stereo partly shown) [Compound 143] | 8 (≈ 21.1 µM) | 32 (≈ 84.3 µM) | 32 (≈ 84.3 µM) | > 32 | 0.5 (≈ 1.32 µM) | 1 (≈ 2.64 µM) | 4 (≈ 10.5 µM) | 0.5 (≈ 1.32 µM) | 1 (≈ 2.64 µM) | 0.5 (≈ 1.32 µM) | 0.5 (≈ 1.32 µM) | 0.5 (≈ 1.32 µM) | 0.5 (≈ 1.32 µM) | 1 (≈ 2.64 µM) | 2 (≈ 5.27 µM) | 0.063 (≈ 0.166 µM) | 16 (≈ 42.2 µM) | 8 (≈ 21.1 µM) | 8 (≈ 21.1 µM) | 1 (≈ 2.64 µM) | MIC [12]: 2 µg/mL (≈ 5.27 µM); MIC [13]: 0.5 µg/mL (≈ 1.32 µM); MIC (strain #23 Serratia marcescens): 1 µg/mL (≈ 2.64 µM); MIC (strain #24 Serratia marcescens): 2 µg/mL (≈ 5.27 µM); MIC [14]: 1 µg/mL (≈ 2.64 µM); MIC (strain #26 Shigella sonnei): 1 µg/mL (≈ 2.64 µM); MIC (strain #27 Shigella flexneri): 0.5 µg/mL (≈ 1.32 µM); MIC [15]: 4 µg/mL (≈ 10.5 µM) |
| C[C@@H](O)C1C(=O)N2C(C(=O)O)=C(CN3CC[C@H](NS(N)(=O)=O)C3)[C@H](C)C12 (stereo partly shown) [Compound 72] | 1 (≈ 2.57 µM) | 2 (≈ 5.15 µM) | 4 (≈ 10.3 µM) | 4 (≈ 10.3 µM) | 0.5 (≈ 1.29 µM) | 0.5 (≈ 1.29 µM) | 1 (≈ 2.57 µM) | 0.25 (≈ 0.644 µM) | 1 (≈ 2.57 µM) | 0.25 (≈ 0.644 µM) | 0.25 (≈ 0.644 µM) | 0.25 (≈ 0.644 µM) | 0.5 (≈ 1.29 µM) | 1 (≈ 2.57 µM) | 0.5 (≈ 1.29 µM) | 0.016 (≈ 0.0412 µM) | 4 (≈ 10.3 µM) | 4 (≈ 10.3 µM) | 2 (≈ 5.15 µM) | 0.5 (≈ 1.29 µM) | MIC [12]: 2 µg/mL (≈ 5.15 µM); MIC [13]: 0.5 µg/mL (≈ 1.29 µM); MIC (strain #23 Serratia marcescens): 1 µg/mL (≈ 2.57 µM); MIC (strain #24 Serratia marcescens): 1 µg/mL (≈ 2.57 µM); MIC [14]: 0.5 µg/mL (≈ 1.29 µM); MIC (strain #26 Shigella sonnei): 0.5 µg/mL (≈ 1.29 µM); MIC (strain #27 Shigella flexneri): 0.25 µg/mL (≈ 0.644 µM); MIC [15]: 0.5 µg/mL (≈ 1.29 µM); MIC [16]: 8 µg/mL (≈ 20.6 µM); MIC [17]: 8 µg/mL (≈ 20.6 µM); MIC [18]: 2 µg/mL (≈ 5.15 µM); MIC [19]: 4 µg/mL (≈ 10.3 µM); MIC [20]: 8 µg/mL (≈ 20.6 µM); MIC [21]: 8 µg/mL (≈ 20.6 µM); MIC [22]: 8 µg/mL (≈ 20.6 µM); MIC [23]: 32 µg/mL (≈ 82.4 µM) |
| C[C@@H](O)[C@H]1C(=O)N2C(C(=O)O)=C(CN3C[C@@H](O)[C@H](NC(=N)N)C3)[C@H](C)[C@H]12 [Compound 178] | 0.13 (≈ 0.354 µM) | 1 (≈ 2.72 µM) | 1 (≈ 2.72 µM) | 1 (≈ 2.72 µM) | 0.25 (≈ 0.68 µM) | 0.5 (≈ 1.36 µM) | 1 (≈ 2.72 µM) | 0.25 (≈ 0.68 µM) | 0.5 (≈ 1.36 µM) | 0.25 (≈ 0.68 µM) | 0.25 (≈ 0.68 µM) | 0.5 (≈ 1.36 µM) | 0.5 (≈ 1.36 µM) | 0.5 (≈ 1.36 µM) | 0.5 (≈ 1.36 µM) | ≤ 0.008 | 2 (≈ 5.44 µM) | 2 (≈ 5.44 µM) | 2 (≈ 5.44 µM) | 0.5 (≈ 1.36 µM) | MIC [12]: 1 µg/mL (≈ 2.72 µM); MIC [13]: 0.5 µg/mL (≈ 1.36 µM); MIC (strain #23 Serratia marcescens): 1 µg/mL (≈ 2.72 µM); MIC (strain #24 Serratia marcescens): 2 µg/mL (≈ 5.44 µM); MIC [14]: 0.5 µg/mL (≈ 1.36 µM); MIC (strain #26 Shigella sonnei): 0.5 µg/mL (≈ 1.36 µM); MIC (strain #27 Shigella flexneri): 0.25 µg/mL (≈ 0.68 µM); MIC [15]: 0.13 µg/mL (≈ 0.354 µM); MIC [16]: 1 µg/mL (≈ 2.72 µM); MIC [17]: 2 µg/mL (≈ 5.44 µM); MIC [18]: 1 µg/mL (≈ 2.72 µM); MIC [19]: 2 µg/mL (≈ 5.44 µM); MIC [20]: 2 µg/mL (≈ 5.44 µM); MIC [21]: 2 µg/mL (≈ 5.44 µM); MIC [22]: 2 µg/mL (≈ 5.44 µM); MIC [23]: 16 µg/mL (≈ 43.5 µM) |

Source: patent US9937151B2, “Carbapenem antibacterials with gram-negative activity” (priority 2010, dated 2018)
